The results in this text go back to EP3974434B1, “MACROLIDE DERIVATIVES, PREPARATION METHOD AND APPLICATION THEREOF” (Zhejiang Hisun Pharmaceutical Co., Ltd., priority 2019, dated 2020).

What is called IC50 is the midpoint of a concentration-inhibition curve. The low end stands for higher potency, the high end for lower potency. Usually bioavailability stands for the share of a dose that reaches the circulation, judged against a reference dose that is usually intravenous. One may read the clearance as a measure of how efficiently the substance is removed, as volume per time.

The target of one data set is T1, TRKA (Homo sapiens, UniProt P04629).
T1 construct: purchased Carna bioscience 08-186
Kind of data set: HTRF KinEASE-TK kinase activity inhibition assay, TRKA. The data set is classed as biochemical. The note with it: ATP 100 µM. An excerpt: (§1) The following method was used to determine the inhibition degrees of the compounds of the present invention on the activity of recombinant human NTRK family kinase in vitro. In this method, HTRF®KinEASE-TK tyrosine kinase kit (article number: 62TK0PEB) of Cisbio company was used, and the principle of the kit was based on time-resolved fluorescence resonance energy transfer (TF-FRET), and the inhibition of the compounds on the activity of the NTRK kinase was reflected by determining a phosphorylation degree of a biotinylated polypeptide substrate mediated by NTRK kinase. For detailed experimental operation, please refer to the kit instruction. Recombinant human wild-type NTRK proteins were purchased from Carna bioscience (the article numbers were TRKA #08-186, TRKB #08-187 and TRKC #08-197 respectively), and recombinant human mutant NTRK proteins were purchased from SignalChem (the article numbers were TRKA G595R #N16-12BG-10, TRKA G667C # N16-12CG-10, and TRKC G623R # N18-12CH-10 respectively).
(§2) The experimental methods were operated according to the steps in the kit instruction, and were briefly described as follows: a test compound was first dissolved in DMSO to prepare a storage solution, and then diluted in gradient with a buffer provided in the kit. A final concentration of the test compound in the reaction system ranged from 1,000 nM to 0.004 nM. An ATP Km value concentration of each NTRK protein was determined by using an ATP solution diluted in gradient (Sangon Biotech (Shanghai) Co., Ltd., A600311). According to the Km value obtained, the ATP concentrations in the reaction system were set as 100 µM for TRKA, 10 µM for TRKB, 50 µM for TRKC, 7 µM for TRKA(G595R), 1 µM for TRKA(G667C) and 100 µM for TRKC(G623R). The reaction was carried out in a 384-well microplate. Firstly, the compound and a certain amount of corresponding NTRK protein were added to the wells and incubated for 5 minutes to 10 minutes at room temperature. Then, the ATP solution and the biotinylated polypeptide substrate solution were added to the reaction solution and incubated with shaking at room temperature for 60 minutes. Then, an anti-phosphorylated tyrosine antibody coupled with a europium compound and streptavidin coupled with modified allophycocyanin XL665 were added to the reaction, and continuously incubated with shaking at room temperature for 1 hour. After incubation, fluorescence intensity values of each well at an excitation wavelength of 304 nm, and emission wavelengths of 620 nm and 665 nM were determined in a TF-FRET mode on a microplate reader. Compared with the fluorescence intensity ratio of a control group (0.1% DMSO), the percentage inhibition rates of the compound at each concentration were calculated, and the IC50 value of the compound was obtained by performing nonlinear regression analysis for logarithmic value of the compound concentration - inhibition rate by GraphPad Prism 5 software, which can be seen in Table 1. Table 1 IC50 data of the compounds of the present invention on TRK enzyme activity inhibition

The next data set concerns the target T2, TRKB (Homo sapiens, UniProt Q16620).
T2 construct: purchased Carna bioscience 08-187
Briefly: HTRF KinEASE-TK kinase activity inhibition assay, TRKB. The following applies: ATP 10 µM. It is filed as biochemical.
Source text: as §1, §2
In general terms: Time-resolved FRET reads energy transfer from a long-lived donor to a nearby acceptor.

The target of a further data set is T3, TRKC (Homo sapiens, UniProt Q16288).
T3 construct: purchased Carna bioscience 08-197
Briefly: HTRF KinEASE-TK kinase activity inhibition assay, TRKC. It is filed as biochemical. The note with it: ATP 50 µM.
Source text: as §1, §2

The target in another data set is T4, TRKA(G595R) (Homo sapiens, UniProt P04629, G595R).
T4 construct: purchased SignalChem N16-12BG-10
Briefly: HTRF KinEASE-TK kinase activity inhibition assay, TRKA(G595R). The following applies: ATP 7 µM. The data set is classed as biochemical.
Source text: as §1, §2

For the next data set, the target named is T5, TRKC(G623R) (Homo sapiens, UniProt Q16288, G623R).
T5 construct: purchased SignalChem N18-12CH-10
Briefly: HTRF KinEASE-TK kinase activity inhibition assay, TRKC(G623R). The data set is classed as biochemical. The following applies: ATP 100 µM.
Source text: as §1
as §2, with “Then, an anti-phosphorylated tyrosine antibody coupled with a europium compound and streptavidin coupled with modified allophycocyanin XL665 were added to the reaction, and continuously incubated with shaking at room temperature for 1 hour.” left out, “Table 1 IC50 data of the compounds of the present invention on TRK enzyme activity inhibition” left out

Data set [1] in a line: Pharmacokinetic study on ICR mice (plasma, LC-MS/MS). The note with it: male, mouse; for AUC(0-inf): read-out: Area under curve AUC0-∞; for half-life: read-out: Half-life T1/2(h) (converted). It is filed as in vivo. How it is done:
ICR mice, male, 29.0 g to 33.8g, purchased from Beijing Charles River Laboratory Animal Technology Co., Ltd.
Intravenous injection group: an appropriate amount of drug was weighed, and added with mixed solvent (DMA: 30% Solutol HS-15: Saline = 10: 10: 80 (v/v/v)) to prepare the drug with a final concentration of 0.2 mg/mL.
Oral gavage administration group: an appropriate amount of drug was weighed, added with an appropriate amount of sodium carboxymethyl cellulose (CMC-Na, containing 0.5% Tween 80), vortex shaked, and ultrasonically prepared into […] suspension.
For ICR mice, each compound to be tested was divided into an intravenous injection group (9 mice in each group) and an intragastric group (9 mice in each group). The ICR mice were fasted overnight and then administered by orbital intravenous injection (administration dose of 1 mg/kg, and administration volume of 5 mL/kg) and administered by intragastric injection (administration dose of 5 mg/kg, and administration volume of 10 mL/kg), and ate 4 hours after administration.
About 0.2 mL of blood was collected via jugular vein before administration and 0.083 hour, 0.25 hour, 0.5 hour, 1 hour, 2 hours, 4 hours, 8 hours, 12 hours and 24 hours after administration, and heparin sodium was used for anticoagulation. The collected blood samples were placed on ice, and plasma was separated by centrifugation (centrifugation condition: 1500 g, 10 minutes). The collected plasma was stored at-40°C to -20°C before analysis.
LC-MS/MS was used to determine the contents of different compounds to be tested in mouse plasma after intravenous injection and intragastric administration.
The pharmacokinetic parameters of the compounds of the present invention and the positive control can be seen in Table 8. Table 8 Results of pharmacokinetic parameters

The target in another data set is T6, TRKA(G667C) (Homo sapiens, UniProt P04629, G667C).
T6 construct: purchased SignalChem N16-12CG-10
Kind of data set: HTRF KinEASE-TK kinase activity inhibition assay, TRKA(G667C). The note with it: ATP 1 µM. It is filed as biochemical.
Source text: as §1, §2

Setting [2] is: intravenous, 1 mg/kg, injection.

Where two headings read alike, the source gives them in different places.

T4 sequence (P04629 33-796 G595R): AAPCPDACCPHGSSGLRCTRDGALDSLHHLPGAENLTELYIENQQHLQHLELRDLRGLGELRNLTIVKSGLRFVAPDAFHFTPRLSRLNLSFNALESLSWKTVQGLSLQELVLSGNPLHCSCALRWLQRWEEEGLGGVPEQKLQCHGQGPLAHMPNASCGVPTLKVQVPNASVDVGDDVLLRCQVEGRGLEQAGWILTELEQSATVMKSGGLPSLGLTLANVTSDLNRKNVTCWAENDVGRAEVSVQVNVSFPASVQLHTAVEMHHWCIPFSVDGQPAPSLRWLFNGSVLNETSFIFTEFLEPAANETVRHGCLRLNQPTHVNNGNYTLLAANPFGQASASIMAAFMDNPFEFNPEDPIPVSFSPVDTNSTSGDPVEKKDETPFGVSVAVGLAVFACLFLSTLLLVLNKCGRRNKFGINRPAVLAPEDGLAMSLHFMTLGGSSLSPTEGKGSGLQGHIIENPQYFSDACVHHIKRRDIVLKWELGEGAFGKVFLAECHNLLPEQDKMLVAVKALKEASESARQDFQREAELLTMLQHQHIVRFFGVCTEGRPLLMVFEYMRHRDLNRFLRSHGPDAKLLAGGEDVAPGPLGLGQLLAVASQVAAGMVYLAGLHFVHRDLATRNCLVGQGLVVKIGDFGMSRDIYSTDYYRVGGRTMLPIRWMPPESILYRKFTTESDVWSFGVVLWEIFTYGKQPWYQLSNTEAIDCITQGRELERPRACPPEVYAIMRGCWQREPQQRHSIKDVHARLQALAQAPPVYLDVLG
T5 sequence (Q16288 32-839 G623R): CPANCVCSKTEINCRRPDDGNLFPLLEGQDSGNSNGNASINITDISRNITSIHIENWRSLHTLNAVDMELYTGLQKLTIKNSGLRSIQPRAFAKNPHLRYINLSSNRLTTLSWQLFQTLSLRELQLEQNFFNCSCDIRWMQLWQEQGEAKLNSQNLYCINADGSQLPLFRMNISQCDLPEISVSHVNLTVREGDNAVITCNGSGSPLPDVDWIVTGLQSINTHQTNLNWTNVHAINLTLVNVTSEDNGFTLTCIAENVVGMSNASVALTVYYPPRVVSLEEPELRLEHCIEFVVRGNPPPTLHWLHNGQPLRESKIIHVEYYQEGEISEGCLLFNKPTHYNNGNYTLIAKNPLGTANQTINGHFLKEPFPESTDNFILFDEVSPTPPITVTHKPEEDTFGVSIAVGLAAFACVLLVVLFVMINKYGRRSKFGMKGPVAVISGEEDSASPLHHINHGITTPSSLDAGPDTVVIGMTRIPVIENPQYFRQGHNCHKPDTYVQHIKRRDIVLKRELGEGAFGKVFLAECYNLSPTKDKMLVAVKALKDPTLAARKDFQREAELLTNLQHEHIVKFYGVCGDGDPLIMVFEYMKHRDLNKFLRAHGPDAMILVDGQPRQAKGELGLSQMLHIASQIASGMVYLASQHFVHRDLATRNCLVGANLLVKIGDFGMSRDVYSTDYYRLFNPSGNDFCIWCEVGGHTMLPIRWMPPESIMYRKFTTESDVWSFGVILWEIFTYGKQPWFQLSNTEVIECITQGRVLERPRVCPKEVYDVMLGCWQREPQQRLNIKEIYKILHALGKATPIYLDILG
T2 sequence (Q16620 32-822): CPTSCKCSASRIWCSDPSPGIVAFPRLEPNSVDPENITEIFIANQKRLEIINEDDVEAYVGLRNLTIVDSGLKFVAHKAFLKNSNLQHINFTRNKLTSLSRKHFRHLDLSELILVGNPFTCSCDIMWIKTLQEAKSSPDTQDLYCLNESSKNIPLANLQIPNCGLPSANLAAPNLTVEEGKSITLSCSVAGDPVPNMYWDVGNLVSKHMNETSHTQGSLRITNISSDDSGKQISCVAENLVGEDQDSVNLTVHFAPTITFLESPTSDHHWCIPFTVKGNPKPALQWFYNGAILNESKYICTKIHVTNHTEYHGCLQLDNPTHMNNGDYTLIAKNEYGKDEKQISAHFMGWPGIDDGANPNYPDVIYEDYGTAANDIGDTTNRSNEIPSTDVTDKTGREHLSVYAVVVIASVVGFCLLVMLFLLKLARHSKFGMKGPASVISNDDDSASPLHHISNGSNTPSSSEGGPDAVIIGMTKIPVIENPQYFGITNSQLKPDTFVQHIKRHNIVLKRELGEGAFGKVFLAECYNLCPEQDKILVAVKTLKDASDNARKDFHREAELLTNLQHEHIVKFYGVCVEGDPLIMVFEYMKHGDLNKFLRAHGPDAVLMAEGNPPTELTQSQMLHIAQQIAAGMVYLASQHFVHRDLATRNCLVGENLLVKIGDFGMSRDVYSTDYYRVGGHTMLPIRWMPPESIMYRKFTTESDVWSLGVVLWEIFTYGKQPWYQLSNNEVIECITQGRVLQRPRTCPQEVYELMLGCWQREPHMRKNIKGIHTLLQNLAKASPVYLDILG
T1 sequence (P04629 33-796): as the sequence (P04629 33-796 G595R) above, with R563G counted along it
T3 sequence (Q16288 32-839): as the sequence (Q16288 32-839 G623R) above, with R592G counted along it
T6 sequence (P04629 33-796 G667C): as the sequence (P04629 33-796 G595R) above, with R563G, G635C counted along it

For the compound `C[C@H]1Nc2ccn3ncc(c3n2)C(=O)NCC2(C)Cc3cc(F)cc1c3O2` (stereo partly drawn) [Example 5, (3R)-6-fluoro-3,11-dimethyl-10-oxa-2,13,17,18,21-pentaazapentacyclo[13.5.2.1^8,11.0^4,9.0^18,22]tricosa-1 (21),4,6,8,15(22),16,19-heptaen-14-one], the IC50 is 0.92 nM at TRKA; 0.76 nM against TRKB; 2.63 nM against TRKC; 4.31 nM against TRKA(G595R); 14.5 nM against TRKC(G623R). In data set [1] (5 mg/kg oral intake vs 1 mg/kg injection, read-out: Bioavailability F(%)), the bioavailability was determined as 65%. In addition, the AUC(0-inf) in data set [1] (5 mg/kg, oral intake) worked out at 6.04 µg·h/mL; in data set [1] (setting [2]), 1.85 µg·h/mL. Further, in data set [1] (5 mg/kg, oral intake, read-out: Blood concentration Cmax), the Cmax was determined as 2.6 µg/mL. Moreover, the half-life is 2.03 h in data set [1] (5 mg/kg, oral intake) and 1.79 h in data set [1] (setting [2]). For the same compound, the clearance in data set [1] (intravenous, 1 mg/kg, injection, read-out: Clearance rate) turned out to be 0.54 L/h/kg.
Turning to `C[C@H]1Nc2ccn3ncc(c3n2)C(=O)NC[C@@H]2COc3cc(F)cc1c3O2` [Example 7, (2R,14R)-19-fluoro-2-methyl-16,22-dioxa-3,5,7,8, 12-pentaazapentacyclo[12.6.2.2^4,7.0^6,10.0^17,21]tetrac osa-1(20),4,6(10),8,17(21),18,23-heptaen-11-one], the IC50 on TRKA is 2.05 nM; against TRKB it was 0.32 nM; against TRKA(G595R), 2.65 nM; against TRKA(G667C) it was 21.1 nM; against TRKC(G623R) it was 25.3 nM.
`C[C@H]1Nc2ccn3ncc(c3n2)C(=O)NCC2(C)Cc3cc(Cl)cc1c3O2` (stereo partly drawn) [Example 22, (3R)-6-chloro-3,11-dimethyl-10-oxa-2,13,17,18,21-pentaazapentacyclo[13.5.2.1^8,11.0^4,9.0^18,22]tricosa-1 (21),4,6,8,15(22),16,19-heptaen-14-one]: the half-maximal inhibitory concentration (IC50) against TRKA was 0.98 nM; at TRKB, 0.36 nM; against TRKC, 0.52 nM; against TRKA(G595R), 4.97 nM; on TRKA(G667C), 4.6 nM; against TRKC(G623R) it was 7.4 nM.
